Test systems include HT29 colon; MDA-MB-231 breast; RXF 393 renal; KM12 colon; NCI-H23 lung; UACC-257 melanoma; T-47D breast; HCC-2998 colon; HCT-116 colon; SK-MEL-5 melanoma; A498 renal; 786-0 renal; BT-549 breast; SK-MEL-2 melanoma; CAKI-1 renal; SW-620 colon; M14 melanoma; ACHN renal; SF-539 CNS; PC-3 prostate.
Test in all cases: inhibition of tumour cell growth, NCI panel, 48 h

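Compound exposure: 48 hours, 5 concentrations, 96-well plates. The concentration for full growth arrest is given as TGI.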

For the compound `O=C(NNC(=O)c1ccccc1O)c1cccc(Br)c1`, the TGI with HT29 colon was > 100 µM; in the assay with MDA-MB-231 breast, > 77.7 µM; with RXF 393 renal, > 100 µM; with KM12 colon it was > 100 µM; in the assay on NCI-H23 lung it was > 100 µM; in the assay with UACC-257 melanoma, > 100 µM. In addition, the TGI with T-47D breast, with HCC-2998 colon, in the assay with HCT-116 colon, with SK-MEL-5 melanoma, with A498 renal and with 786-0 renal was > 100 µM in each case. In addition, the TGI in the assay on BT-549 breast, in the assay on SK-MEL-2 melanoma, in the assay on CAKI-1 renal, with SW-620 colon, in the assay with M14 melanoma and in the assay with ACHN renal was > 100 µM throughout. The TGI in the assay on SF-539 CNS and in the assay on PC-3 prostate was > 100 µM in each case.

`CCOc1nnnc2nc[nH]c12`: the TGI in the assay with HT29 colon, in the assay on MDA-MB-231 breast, in the assay with RXF 393 renal, in the assay with KM12 colon, with NCI-H23 lung and in the assay with UACC-257 melanoma was > 100 µM throughout. The TGI in the assay on T-47D breast, with HCC-2998 colon, with HCT-116 colon, with SK-MEL-5 melanoma, in the assay on A498 renal and with 786-0 renal was > 100 µM throughout. The TGI in the assay on BT-549 breast, with SK-MEL-2 melanoma, with CAKI-1 renal, with SW-620 colon, in the assay on M14 melanoma and in the assay on SF-539 CNS was > 100 µM throughout. For the same compound, in the assay with PC-3 prostate, the TGI is > 100 µM.

With `COC(=O)C1=C(O)c2ccc(Cl)cc2S(=O)(=O)N1C`, the TGI in the assay with HT29 colon, with MDA-MB-231 breast, with RXF 393 renal, in the assay with KM12 colon, with NCI-H23 lung and in the assay on UACC-257 melanoma was > 100 µM throughout. For the same compound, the TGI in the assay with T-47D breast, with HCC-2998 colon, with HCT-116 colon, in the assay on SK-MEL-5 melanoma, in the assay on A498 renal and in the assay on 786-0 renal was > 100 µM throughout. Besides, the TGI with BT-549 breast, in the assay with SK-MEL-2 melanoma, with CAKI-1 renal, with SW-620 colon, in the assay with M14 melanoma and in the assay on ACHN renal was > 100 µM throughout. The TGI with PC-3 prostate is > 100 µM.

On to `CCCC(=O)N1CCN(c2ccc3c(c2)OC(C)O3)CC1` (centres undefined), for which the TGI in the assay on HT29 colon, in the assay with MDA-MB-231 breast, with RXF 393 renal, with KM12 colon, with NCI-H23 lung and in the assay with UACC-257 melanoma was > 100 µM throughout. Moreover, the TGI in the assay on T-47D breast, in the assay with HCC-2998 colon, in the assay with HCT-116 colon, in the assay on SK-MEL-5 melanoma, in the assay on A498 renal and in the assay on 786-0 renal was > 100 µM throughout. The TGI with BT-549 breast, with CAKI-1 renal, with SW-620 colon, in the assay with M14 melanoma, in the assay on ACHN renal and in the assay with SF-539 CNS was > 100 µM each time. Also, the TGI in the assay with PC-3 prostate was > 100 µM.

In the case of `Nc1ccn([C@H]2CO[C@@H](CO)[C@@H]2O)c(=O)n1`, the TGI in the assay with HT29 colon, in the assay on MDA-MB-231 breast, with RXF 393 renal, in the assay with KM12 colon, in the assay on NCI-H23 lung and in the assay with UACC-257 melanoma was > 100 µM each time. Moreover, the TGI with T-47D breast, with HCC-2998 colon, in the assay with HCT-116 colon, in the assay with SK-MEL-5 melanoma, in the assay on A498 renal and with 786-0 renal was > 100 µM each time. The TGI in the assay with BT-549 breast, with SK-MEL-2 melanoma, with CAKI-1 renal, in the assay on SW-620 colon, with ACHN renal and with SF-539 CNS was > 100 µM in each case. In addition, the TGI in the assay with PC-3 prostate was > 100 µM.

As to `CCOC(=O)/C=C(/C(=O)OCC)n1cnc2c(=O)[nH]c(NC(C)=O)nc21`, the TGI with HT29 colon, in the assay with MDA-MB-231 breast, in the assay with KM12 colon, with NCI-H23 lung, in the assay on UACC-257 melanoma and in the assay on T-47D breast was > 100 µM each time. Moreover, the TGI with HCC-2998 colon, with HCT-116 colon, in the assay with SK-MEL-5 melanoma, with A498 renal, with 786-0 renal and in the assay on BT-549 breast was > 100 µM throughout. In addition, the TGI with SK-MEL-2 melanoma, with CAKI-1 renal, in the assay with SW-620 colon, in the assay on M14 melanoma, in the assay on ACHN renal and in the assay with SF-539 CNS was > 100 µM in each case. For the same compound, the TGI in the assay with PC-3 prostate was > 100 µM.

As for `Cn1c2ccccc2c(=O)c2cccc(C(=O)NC(CS)C(=O)O)c21` (centres undefined), the TGI in the assay on HT29 colon, with MDA-MB-231 breast, in the assay with KM12 colon, in the assay on NCI-H23 lung, with UACC-257 melanoma and in the assay with T-47D breast was > 100 µM in each case. Also, the TGI with HCC-2998 colon, with HCT-116 colon, in the assay on SK-MEL-5 melanoma, in the assay on A498 renal, in the assay with 786-0 renal and with BT-549 breast was > 100 µM throughout. Besides, the TGI in the assay on SK-MEL-2 melanoma, in the assay with CAKI-1 renal, with SW-620 colon, in the assay on M14 melanoma, in the assay on ACHN renal and in the assay with SF-539 CNS was > 100 µM each time. Also, the TGI in the assay on PC-3 prostate is > 100 µM.

For `CC(C)(C)OC/C=C(/CO)[C@@H]1C=C[C@H](O)C1`, the TGI with HT29 colon, with MDA-MB-231 breast, in the assay with KM12 colon, with NCI-H23 lung, with UACC-257 melanoma and in the assay on T-47D breast was > 100 µM each time. The TGI in the assay with HCC-2998 colon, with HCT-116 colon, with A498 renal, in the assay with 786-0 renal, in the assay on BT-549 breast and in the assay on SK-MEL-2 melanoma was > 100 µM each time. For the same compound, the TGI in the assay on CAKI-1 renal, in the assay with SW-620 colon, with M14 melanoma, in the assay with ACHN renal, in the assay on SF-539 CNS and with PC-3 prostate was > 100 µM each time.

Consider `CCOC(=O)[C@H](C)OC(=O)[C@@](C)(NC(=O)c1ccccc1C(=O)OC)[C@@H]1NC=C(C(=O)OC)CS1`, for which the TGI in the assay with HT29 colon, in the assay on MDA-MB-231 breast, in the assay on RXF 393 renal, in the assay on KM12 colon, in the assay with NCI-H23 lung and with UACC-257 melanoma was > 100 µM throughout. Also, the TGI with T-47D breast, in the assay with HCC-2998 colon, with HCT-116 colon, with SK-MEL-5 melanoma, in the assay with A498 renal and in the assay with 786-0 renal was > 100 µM throughout. For the same compound, the TGI with BT-549 breast, with SK-MEL-2 melanoma, with CAKI-1 renal, in the assay on SW-620 colon, in the assay on M14 melanoma and in the assay with ACHN renal was > 100 µM each time. Further, in the assay on PC-3 prostate, the TGI is > 100 µM.

As for `CC(=O)OCC1OC(n2c(C)cc(C)c(C#N)c2=S)C(OC(C)=O)C(OC(C)=O)C1OC(C)=O` (centres undefined), the TGI in the assay with HT29 colon, with MDA-MB-231 breast, with RXF 393 renal, in the assay on KM12 colon, in the assay on NCI-H23 lung and in the assay on UACC-257 melanoma was > 100 µM each time. In addition, the TGI in the assay on T-47D breast, in the assay with HCC-2998 colon, with HCT-116 colon, in the assay with SK-MEL-5 melanoma, in the assay with A498 renal and in the assay on 786-0 renal was > 100 µM each time. Further, the TGI in the assay on BT-549 breast, in the assay with SK-MEL-2 melanoma, with CAKI-1 renal, with M14 melanoma, with ACHN renal and with SF-539 CNS was > 100 µM in each case. Besides, the TGI in the assay with PC-3 prostate was > 100 µM.

`COc1ccc(C[C@H]2COC(=O)[C@@H]2Cc2cccc(Br)c2)cc1OC`: the TGI was 60.8 µM in the assay with HT29 colon; 64.9 µM in the assay on MDA-MB-231 breast; 77.6 µM in the assay with RXF 393 renal; 43.3 µM in the assay with KM12 colon; > 100 µM in the assay on NCI-H23 lung; 56.2 µM with UACC-257 melanoma. Also, the TGI in the assay on T-47D breast is > 100 µM; in the assay with HCC-2998 colon, 66.4 µM; in the assay on HCT-116 colon it was > 100 µM; in the assay with SK-MEL-5 melanoma, 30.5 µM; in the assay with 786-0 renal, > 100 µM; in the assay on BT-549 breast, 61.2 µM. Also, the TGI turned out to be 73.5 µM in the assay on SK-MEL-2 melanoma; 30 µM in the assay on CAKI-1 renal; 83.3 µM in the assay with SW-620 colon; 27.8 µM with M14 melanoma; 84.9 µM with ACHN renal; 41.4 µM with SF-539 CNS. Moreover, the TGI in the assay on PC-3 prostate was determined as 53.6 µM.

Values taken from PubChem BioAssay (NCI).
